Test results published in patent publication US20260174707A1, “USE OF GNRH ANTAGONIST IN REGULATION AND CONTROL OF ESTRUS OF MAMMAL” (priority 2022, published 2026).
Marks after values point to notes of the source that are not given here. Where a SMILES comes first, the peptide text is derived from it. [ ]: non-standard residue; d: D form. The star is where a group is joined. dPhe(4-NHCONH2) = NC(=O)Nc1ccc(C[C@@H](N)C(=O)O)cc1; Dihydroorotyl(S) = O=C1C[C@@H](C(=O)*)NC(=O)N1; dPhe(4-Cl) = N[C@H](Cc1ccc(Cl)cc1)C(=O)O; Phe(4-NH2) = Nc1ccc(C[C@H](N)C(=O)O)cc1; d2Nal = N[C@H](Cc1ccc2ccccc2c1)C(=O)O; Lys(iPr) = CC(C)NCCCC[C@H](N)C(=O)O; d3Pal = N[C@H](Cc1cccnc1)C(=O)O

Legend:
Format in all cases: in vivo
female dogs = assay: Inhibiting effect on female dogs in proestrus; conditions: 1.5 mg/kg subcutaneous
Description: Healthy female dogs in proestrus (the proestrus period was less than 3 days) were selected and divided into an experimental group and a control group. Each group of the animals was treated with subcutaneous injections, the female dogs in control group were injected with normal saline, and the female dogs in experimental group were injected with 1.5 mg/kg body weight of Degarelix, each group of the treated animals was fed and observed in the same way to detect the oestrus of the female dogs.

female mice [1] = assay: Oestrus inhibition in female mice (daily vaginal smear); conditions: only subcutaneous injection once
Description: Twenty-four 6-week-old female mice were selected and divided into 4 groups, with 6 mice in each group. The female mice in the negative control group were subcutaneously injected with normal saline, the female mice in the Abarelix group were subcutaneously injected with a dosage of 2 mg/kg/day for 8 consecutive days, the female mice in the Cetrorelix group were subcutaneously injected with a dosage of 2 mg/kg/day for 8 consecutive days, and the female mice in the Degarelix group were subcutaneously injected once with a dose of 2 mg/kg. After administration, vaginal smear experiments were performed on female mice every day to detect the stage of the oestrus cycle of female mice in each group. […] Thirty-two 6-week-old female mice were selected and divided into 4 groups, with 8 mice in each group. The female mice in the negative control group were subcutaneously injected with normal saline, and the female mice in the three Degarelix groups were subcutaneously injected with different dosages (0.4 mg/kg, 0.6 mg/kg and 1.0 mg/kg) of Degarelix once. After administration, vaginal smear experiments were performed on female mice every day to detect the oestrous condition.

gilts = assay: Oestrus synchronization of gilts (inhibitor, then PMSG); conditions: 1,000 units PMSG im on 20th day
Description: Comparison of experiments of administering Degarelix and altrenogest in achieving oestrus synchronization in gilts was performed. Twelve healthy adult gilts were selected and divided into two groups, namely an altrenogest group and a Degarelix group, with 6 gilts in each group. Among them, gilts in the altrenogest group were fed 20 mg of altrenogest every day for 18 consecutive days, while gilts in the Degarelix group were intramuscularly injected with 15 μg/kg body weight of Degarelix only on the first day. Both groups of gilts were intramuscularly injected with 1,000 units of PMSG on the 20th day after the first administration, then test whether the gilts in different treatment groups can achieve the estrus synchronization.

sowpigs = assay: Oestrus inhibition in sowpigs (oestrus performance observed); conditions: intramuscular injection once
Description: Thirty healthy adult sowpigs were selected and divided into a control group and Degarelix experimental groups, with 6 sowpigs in each group. The four Degarelix experimental groups were intramuscularly injected with different doses of Degarelix, namely 10 μg/kg body weight, 20 μg/kg body weight, 40 μg/kg body weight and 160 μg/kg body weight, respectively. The control group was intramuscularly injected with normal saline, and the oestrus performance (e.g., vulva performance and static reaction) of the sowpigs was observed and recorded to determine whether the sowpigs were in oestrus, and the time to restore oestrus after administration was recorded.

male dogs = assay: Inhibiting effect on male dogs (serum testosterone, scrotum circumference, sexual behavior); conditions: 1.5 mg/kg subcutaneous
Description: Adult healthy male dogs with normal reproductive capacity were selected and divided into an experimental group and a control group. Each group of the animals was treated with subcutaneous injections, male dogs in the control group were injected with normal saline, and male dogs in the experimental group were injected with 1.5 mg/kg body weight of Degarelix, the treated animals in each group were fed and observed in the same way. Blood was collected from the animals regularly to measure and record the concentration of testosterone in serum (blood was collected and detected before the injection of drugs, and 1 h, 2 h, 4 h, 6 h, 8 h, 24 h, 48 h, 72h, 120 h and 168 h after the injection of drugs, and after that, the blood was collected every 168 h (1 week) until the end of the experiment), and scrotum circumference of male animals was measured and recorded regularly, sexual behavior of the male animals was observed and recorded, and compared with that of male animals in the control group.

female mice [2] = assay: Oestrus synchronization of female mice (Degarelix, then PMSG and HCG); conditions: 1.0 mg/kg sc; 5 units PMSG ip on 14th day; 5 units HCG ip after 46 hours
Description: It was discovered from the oestrus inhibition experiments that a dose of 1.0 mg/kg can inhibit oestrus of female mice for at least 15 days. Six 6-week-old female mice were selected for further oestrus synchronization experiments. The specific method was as follows: the female mice were subcutaneously injected 1.0 mg/kg of Degarelix, and intraperitoneally injected 5 units of PMSG on the 14th day after administration, and intraperitoneally injected 5 units of HCG after 46 hours, and then the oestrus of the female mice was detected.

[3] = gilts, 15 μg/kg im only on first day
[4] = gilts fed 20 mg every day for 18 days

| Structure (SMILES) | Oestrus stage by vaginal smear (female dogs) | Oestrus symptoms (vulvar redness and swelling, vaginal discharge of mucus) (female dogs) | Time of inhibiting oestrus (female mice [1]; low dose 0.4 mg/kg) | Time of inhibiting oestrus (female mice [1]; middle dose 0.6 mg/kg) | Days after PMSG injection on which gilts were in oestrus (gilts; [3]) | Number of days over which gilts were concentrated in oestrus (gilts; [3]) [days] | Oestrus of all gilts after administration of exogenous hormones (gilts; [3]) | Time to restore oestrus after administration (sowpigs; 10 μg/kg) | Time to restore oestrus after administration (sowpigs; 20 μg/kg) | Time to restore oestrus after administration (sowpigs; 40 μg/kg) | Sexual behaviour (male dogs) | Scrotal circumference (male dogs; after a period of treatment) | Erection and semen collection (male dogs; after treatment) | Testosterone concentration in serum (male dogs; compared to control group) | Days on which female mice were concentrated in oestrus (female mice [2]) | Days after PMSG injection on which gilts were in oestrus (gilts; [4]) | Number of days over which gilts were concentrated in oestrus (gilts; [4]) [days] | Oestrus of all gilts after administration of exogenous hormones (gilts; [4]) |
| --- | --- | --- | --- | --- | --- | --- | --- | --- | --- | --- | --- | --- | --- | --- | --- | --- | --- | --- |
| CC(=O)N[C@H](Cc1ccc2ccccc2c1)C(=O)N[C@H](Cc1ccc(Cl)cc1)C(=O)N[C@H](Cc1cccnc1)C(=O)N[C@@H](CO)C(=O)N[C@@H](Cc1ccc(NC(=O)[C@@H]2CC(=O)NC(=O)N2)cc1)C(=O)N[C@H](Cc1ccc(NC(N)=O)cc1)C(=O)N[C@@H](CC(C)C)C(=O)N[C@@H](CCCCNC(C)C)C(=O)N1CCC[C@H]1C(=O)N[C@H](C)C(N)=O [Degarelix] (Ac-[d2Nal][dPhe(4-Cl)][d3Pal]S[Phe(4-NH2)](Dihydroorotyl(S))[dPhe(4-NHCONH2)]L[Lys(iPr)]P[dA]-NH2) | quickly changed from proestrus to diestrus | gradually disappeared 3 days after the injection | 7.13 ± 2.09^b days | 8.50 ± 3.54^bc days | 3rd to the 5th day | 3 | in oestrus within one week | 21.50 ± 2.45^b days | 38.83 ± 2.37^c days | 53.83 ± 3.16^d days | significantly reduced | significantly reduced | abnormal erections and no semen could be collected | decreased significantly | 17th and 18th days | – | – | – |
| C=CC[C@]1(O)CC[C@H]2[C@@H]3CCC4=CC(=O)CCC4=C3C=C[C@@]21C [altrenogest] | – | – | – | – | – | – | – | – | – | – | – | – | – | – | – | 3rd day to the 6th day | 4 | in oestrus within one week |
